For this assay, the system named is 9His-cgLAAO1. Kind of assay: coupled peroxidase/o-dianisidine assay, Hanes-Woolf. In kind it is biochemical, Colletotrichum gloeosporioides. Conditions: 50 mM TEA/HCl pH 7.0, 30 °C.

By Km is commonly meant the concentration of substrate that gives half-maximal velocity.

On to `NC(=O)CC[C@H](N)C(=O)O` [L-glutamine], for which the Michaelis-Menten constant (Km) came to 760 ± 100 µM.
The same measure for `COC(=O)[C@@H](N)CC(C)C` [L-leucine methyl ester]: 12900 ± 300 µM; for `CC(C)C[C@H](N)C(=O)O` [L-leucine]: 1200 ± 200 µM; for `CSCC[C@H](N)C(=O)O` [L-methionine]: 1060 ± 500 µM.
As for `N[C@@H](Cc1ccccc1)C(=O)O` [L-phenylalanine], the figure is 320 ± 30 µM.

Source of the values: PMC8364938 (MicrobiologyOpen, 2021).
